Values joined by “and” are separate entries in the source; they are usually repeats but may differ in a detail not shown here. Equal values may be shown once.
Columns and labels:
Mus musculus = conditions: oral, drinking water
Rattus norvegicus = conditions: oral
[1] = short-term, duration: 28 days, M, BALB/c, activity cage (locomotion events, 60 min) + Morris water maze (escape time, acquisition, day 5) + Morris water maze (platform crossing, …
[2] = short-term, duration: 28 days, M, BALB/c, elevated plus maze (time in open arms) + forced swim (immobility time, last 4 min) + forced swim (immobility time, total 6 min)
[3] = subchronic, duration: 8 weeks, M, Kunming, Y-maze (number of training runs to meet 90% learning standard)
[4] = subchronic, duration: 8 weeks, M, Kunming, open field (grid entry, 3 minutes)
[5] = subchronic, duration: 10 weeks, ICR, Y-maze (number of training runs to meet 90% learning standard)
[6] = subchronic, duration: 30 days, F, Swiss Albino, rotarod (latency to fall, 25 rpm)
[7] = subchronic, duration: 64 days, M, C57BL/6, formalin test (flinches, early phase, 10 min) + formalin test (flinches, late phase, 60 min) + formalin test (flinches/10 min, 60 min) + …
[8] = chronic, duration: 6 months, drinking water, M/F, Sprague-Dawley, Morris water maze (escape time, acquisition, day 6)
[9] = chronic, duration: 6 months, drinking water, M, Wistar, open field (entries to neighboring grids, day 1) + Y-maze (correct responses, day 9)
[10] = chronic, duration: 6 months, drinking water, M, Wistar, open field (standing attempts, day 1) + open field (standing attempts, day 9) + open field (time in central grid, day 1) + Y-maze (correct …
[11] = developmental, drinking water, M/F, Wistar, generation: F1, F1: active avoidance (shuttle box, conditioned avoidance response, day 2)
[12] = developmental, drinking water, M/F, Wistar, generation: F1, F1: maze test (latency to complete, day 1) + F1: maze test (latency to complete, day 5) + F1: maze test (number entries into blind alleys, …

For `[F-].[Na+]` [Sodium fluoride], the NOEL (Mus musculus; developmental, M, Kunming, generation: F1, F1: activity chamber (ambulation events) + F1: activity chamber (rearing events) + F1: novel object test (adaptation phase memory index) + …) was 18.4 mg/kg-day, the LOEL (Mus musculus; developmental, M, NMRI, generation: F1, F1: maze test (completion time, assessment 1) + F1: maze test (completion time, assessment 2)) was 0.113 mg/day and the NOEL (Mus musculus; short-term, duration: 28 days, M, BALB/c, activity cage (locomotion events, 10 min) + activity cage (rearing events, 10 min) + activity cage (rearing events, 60 min) + elevated plus …) was 1.16 mg/kg-day. The LOEL (Mus musculus; [1]) was 0.58 mg/kg-day, the NOEL (Mus musculus; [1]) was 0.23 mg/kg-day and the LOEL (Mus musculus; [2]) was 1.16 mg/kg-day. For the same compound, the NOEL (Mus musculus; [2]) was 0.58 mg/kg-day, the NOEL (Mus musculus; subchronic, duration: 8 weeks, M, Kunming, Y-maze (% of correct responses 24 hrs after mastering learning standard)) was 1.16 mg/kg-day and the LOEL (Mus musculus; [3]) was 0.58 mg/kg-day and 0.7 mg/kg-day. For the same compound, the NOEL (Mus musculus; [3]) was 0.12 mg/kg-day and 0.35 mg/kg-day, the NOEL (Mus musculus; subchronic, duration: 8 weeks, M, Kunming, open field (grid entry, 1 minute) + open field (rearing events) + open field (standing against wall events) + Y-maze (percent correct …) was 1.39 mg/kg-day and the LOEL (Mus musculus; [4]) was 1.39 mg/kg-day. For the same compound, the NOEL (Mus musculus; [4]) was 0.7 mg/kg-day, the NOEL (Mus musculus; subchronic, duration: 10 weeks, ICR, Y-maze (% of correct responses 24 hrs after mastering learning standard)) was 1.19 mg/kg-day and the LOEL (Mus musculus; [5]) was 1.19 mg/kg-day. The NOEL (Mus musculus; [5]) was 0.59 mg/kg-day, the NOEL (Mus musculus; subchronic, duration: 30 days, F, Swiss Albino, elevated plus maze (time to move from open to closed arm, trial 1) + open field (fecal matter) + open field (grooming time) + open field (…) was 24.5 mg/kg-day and the LOEL (Mus musculus; subchronic, duration: 30 days, F, Swiss Albino, elevated plus maze (time to move from open to closed arm, trial 2) + forced swim (immobility time) + motor coordination (akinesia, latency …) was 12.3 mg/kg-day. For the same compound, the LOEL (Mus musculus; subchronic, duration: 30 days, F, Swiss Albino, maze test (latency) + motor coordination (akinesia, latency time) + motor coordination (catalepsy, latency time) + swim test (total swim …) was 14.7 mg/kg-day, the LOEL (Mus musculus; [6]) was 24.5 mg/kg-day and the NOEL (Mus musculus; [6]) was 12.3 mg/kg-day. It also gave an LOEL (Mus musculus; subchronic, duration: 64 days, M, C57BL/6, Von Frey hairs test (relative frequency of paw withdrawal)) of 5.79 mg/kg-day, an LOEL (Mus musculus; [7]) of 11.6 mg/kg-day and an NOEL (Mus musculus; [7]) of 5.79 mg/kg-day. The NOEL (Mus musculus; subchronic, duration: 64 days, M, C57BL/6, formalin test (licking time, late phase, 60 min) + formalin test (licking time/10 min, 60 min) + open field (total distance moved, 1 hr) + …) was 11.6 mg/kg-day, the LOEL (Rattus norvegicus; chronic, duration: 5 months, drinking water, Sprague-Dawley, Y-maze (number of correct responses over 10 trainings after 24 hours) + Y-maze (number of training runs to meet learning standard 90%)) was 9.8 mg/kg-day and the LOEL (Rattus norvegicus; chronic, duration: 5 months, drinking water, Wistar, Y-maze (number of training runs to achieve 9 consecutive correct responses)) was 6.91 mg/kg-day. For the same compound, the NOEL (Rattus norvegicus; chronic, duration: 6 months, drinking water, M/F, Sprague-Dawley, Morris water maze (escape time, acquisition, day 1)) was 3.28 mg/kg-day and 3.27 mg/kg-day, the LOEL (Rattus norvegicus; [8]) was 3.27 mg/kg-day and the NOEL (Rattus norvegicus; [8]) was 0.33 mg/kg-day. The LOEL (Rattus norvegicus; chronic, duration: 6 months, drinking water, M/F, Sprague-Dawley, Morris water maze (escape time, acquisition, day 6) + Morris water maze (escape time, probe test, day 7)) was 0.33 mg/kg-day, the LOEL (Rattus norvegicus; chronic, duration: 6 months, drinking water, M/F, Sprague-Dawley, Morris water maze (escape time, acquisition, day 6) + Morris water maze (time in platform area, probe test, day 7) + Morris water maze (time…) was 0.33 mg/kg-day and the NOEL (Rattus norvegicus; chronic, duration: 6 months, drinking water, M/F, Sprague-Dawley, Morris water maze (platform crossing, probe test, day 7)) was 3.27 mg/kg-day. It also gave an LOEL (Rattus norvegicus; chronic, duration: 6 months, drinking water, M/F, Sprague-Dawley, Morris water maze (time in platform area, probe test, day 7)) of 0.33 mg/kg-day, an LOEL (Rattus norvegicus; chronic, duration: 6 months, drinking water, M, Wistar, Y-maze (time to meet learning standard 90%)) of 3.34 mg/kg-day and an LOEL (Rattus norvegicus; [9]) of 10 mg/kg-day. For the same compound, the NOEL (Rattus norvegicus; [9]) was 6.67 mg/kg-day, the NOEL (Rattus norvegicus; chronic, duration: 6 months, drinking water, M, Wistar, open field (entries to neighboring grids, day 9) + open field (time in central grid, day 9)) was 10 mg/kg-day and the LOEL (Rattus norvegicus; [10]) was 6.67 mg/kg-day. The NOEL (Rattus norvegicus; [10]) was 3.34 mg/kg-day, the LOEL (Rattus norvegicus; chronic, duration: 10 months, drinking water, M/F, Sprague-Dawley, Morris water maze (escape time, acquisition, average over days 1-6) + Morris water maze (platform crossing, probe test, day 7)) was 2.16 mg/L urine and the LOEL (Rattus norvegicus; chronic, duration: 14 weeks, drinking water, M, Wistar, sexual behavior (ejaculation frequency) + sexual behavior (ejaculation latency) + sexual behavior (intromission latency) + sexual behavior (…) was 6.67 mg/kg-day. The NOEL (Rattus norvegicus; chronic, duration: 115 days, drinking water, M, Wistar, open field (squares crossed)) was 6.67 mg/kg-day, the LOEL (Rattus norvegicus; chronic, duration: 115 days, drinking water, M, Wistar, plank walking (narrow, distance traveled) + plank walking (narrow, number of turns) + plank walking (wide, distance traveled) + plank …) was 6.67 mg/kg-day and the LOEL (Rattus norvegicus; developmental, diet, M/F, Sprague-Dawley, generation: F1, F1: Morris water maze (escape time, acquisition, day 6) + F1: Morris water maze (platform crossing, probe test, day 7) + F1: Morris water …) was 8.52 mg/L urine. It also gave an NOEL (Rattus norvegicus; developmental, drinking water, F, Wistar, generation: F1, F1: cliff avoidance + F1: ear opening + F1: negative geotaxis + F1: surface righting) of 0.54 mg/kg-day, an LOEL (Rattus norvegicus; developmental, drinking water, F, Wistar, generation: F1, F1: elevated plus maze (open arm entries) + F1: elevated plus maze (time in open arms) + F1: open field (grooming events) + F1: open field (…) of 0.27 mg/kg-day and an NOEL (Rattus norvegicus; developmental, drinking water, F, Wistar, generation: F1, F1: elevated plus maze (open arm entries) + F1: open field (defecation) + F1: open field (grooming events) + F1: open field (rearing events…) of 0.54 mg/kg-day. The LOEL (Rattus norvegicus; developmental, drinking water, F, Wistar, generation: F1, F1: elevated plus maze (time in open arms)) was 0.27 mg/kg-day, the LOEL (Rattus norvegicus; developmental, drinking water, F, Wistar, generation: F1, F1: eye opening) was 0.27 mg/kg-day and the NOEL (Rattus norvegicus; developmental, drinking water, F, Wistar, generation: F1, F1: open field (defecation) + F1: open field (rearing events, 15 min)) was 0.54 mg/kg-day. The LOEL (Rattus norvegicus; developmental, drinking water, M/F, Sprague-Dawley, generation: F1, F1: Morris water maze (distance traveled to reach platform, acquisition, day 4) + F1: Morris water maze (latency to reach platform, …) was 1.63 mg/kg-day, the LOEL (Rattus norvegicus; developmental, drinking water, M/F, Sprague-Dawley, generation: F1, F1: Morris water maze (escape time, acquisition, average over days 1-6) + F1: Morris water maze (platform crossing, probe test, day 7) + F1…) was 3.27 mg/kg-day and the NOEL (Rattus norvegicus; developmental, drinking water, M/F, Sprague-Dawley, generation: F1, F1: Morris water maze (swim speed to reach platform, acquisition, day 4)) was 6.53 mg/kg-day. The LOEL (Rattus norvegicus; [11]) was 4.35 mg/kg-day, the NOEL (Rattus norvegicus; [11]) was 2.18 mg/kg-day and the LOEL (Rattus norvegicus; developmental, drinking water, M/F, Wistar, generation: F1, F1: active avoidance (shuttle box, conditioned avoidance response, day 9) + F1: pain response (hot plate, latency period)) was 2.18 mg/kg-day. It also gave an LOEL (Rattus norvegicus; developmental, drinking water, M/F, Wistar, generation: F1, F1: elevated plus maze (open arm entries) + F1: elevated plus maze (time in open arms) + F1: mid-air righting (number of animals successful…) of 9.05 mg/kg-day, an LOEL (Rattus norvegicus; [12]) of 4.87 mg/kg-day and an NOEL (Rattus norvegicus; [12]) of 2.33 mg/kg-day.
